Converted amounts (≈) assume the structure as drawn.
Tests used:
BVDV-strain Pe515 = assay type: cell-based, bovine viral diarrhea virus
BVDV I cp = assay type: cell-based, Bovine viral diarrhea virus
BDV = assay type: cell-based, Border disease virus
HIV-1 (IIIB) = assay type: cell-based, human immunodeficiency virus
HIV-2 (ROD) = assay type: cell-based, human immunodeficiency virus
HSV-1 (KOS) = assay type: cell-based, herpes simplex virus
HSV-2 (G) = assay type: cell-based, herpes simplex virus
VV = assay type: cell-based, vaccinia virus
CMV Davis = assay type: cell-based, human cytomegalovirus
CMV AD-169 = assay type: cell-based, human cytomegalovirus
VZV OKA = assay type: cell-based, varicella zoster virus
VZV YS = assay type: cell-based, varicella zoster virus
L1210/0 = assay type: cell-based, murine
FM3A/0 = assay type: cell-based, murine
Molt4/C8 = assay type: cell-based, human
CEM/0 = assay type: cell-based, human

In the case of `CO[C@H]1O[C@@H]2O[C@@]3(C)CC[C@H]4[C@H](C)CC[C@@H]([C@H]1C)[C@@]24OO3` [Artemether, artemether], the “EC50 BVDV” value (BVDV-strain Pe515) was 0.3 µg/mL (≈ 1.01 µM), the “activity against BVDV” value (BVDV-strain Pe515) was “strong anti-viral activity” and the EC90 (BVDV I cp) was 0.16 µg/mL (≈ 0.536 µM). For the same molecule, the EC90 (BDV) was 0.8 µg/mL (≈ 2.68 µM), the “cell toxicity” value (MDBK cells) was “stayed low” and the toxic concentration (Non infected cells) was “around 100 μg/ml”.
`C[C@@H]1CC[C@H]2[C@@H](C)C(=O)O[C@@H]3O[C@@]4(C)CC[C@@H]1[C@]32OO4` [Artemisinin, artemisinin] was tested, and the “EC50 HIV-1 (IIIB) (CEM)” value (HIV-1 (IIIB)) was over 20 µg/mL, the “EC50 HIV-2 (ROD) (CEM)” value (HIV-2 (ROD)) was over 20 µg/mL and the “EC50 HSV-1 (KOS) (E6SM)” value (HSV-1 (KOS)) was over 400 µg/mL. The “EC50 HSV-2 (G) (E6SM)” value (HSV-2 (G)) was 240 µg/mL (≈ 850 µM), the “antiviral activity against HSV-2” value (HSV-2 (G)) was “showed antiviral activity” and the “EC50 VV (E6SM)” value (VV) was 240 µg/mL (≈ 850 µM). The “antiviral activity against VV” value (VV) was “showed antiviral activity”, the “EC50 CMV Davis (HEL)” value (CMV Davis) was over 50 µg/mL and the “EC50 CMV AD-169 (HEL)” value (CMV AD-169) was over 50 µg/mL. The “EC50 VZV (HEL) OKA” value (VZV OKA) was over 50 µg/mL, the “EC50 VZV (HEL) YS” value (VZV YS) was over 50 µg/mL and the “EC50 BVDV” value (BVDV-strain Pe515) was 0.4 µg/mL (≈ 1.42 µM). For the same molecule, the “activity against BVDV” value (BVDV-strain Pe515) was “strong anti-viral activity”, the “activity against tumor cell line” value (L1210/0) was “no interesting activity” and the “activity against tumor cell line” value (FM3A/0) was “no interesting activity”. For the same molecule, the “activity against tumor cell line” value (Molt4/C8) was “no interesting activity”, the “activity against tumor cell line” value (CEM/0) was “no interesting activity” and the “cell toxicity” value (MDBK cells) was “stayed low”.
For `C[C@H]1[C@H](OC(=O)CCC(=O)O)O[C@@H]2O[C@@]3(C)CC[C@H]4[C@H](C)CC[C@@H]1[C@@]24OO3` [Artensunate, artesunate], the “EC50 BVDV” value (BVDV-strain Pe515) was 0.07 µg/mL (≈ 0.182 µM), the “activity against BVDV” value (BVDV-strain Pe515) was “strong anti-viral activity” and the “MTC MDBK (minimal toxic concentration)” value (MDBK cells) was 0.4 µg/mL. The “cell toxicity” value (MDBK cells) was “stayed low”.
For `C[C@H]1[C@@H](O)O[C@@H]2O[C@@]3(C)CC[C@H]4[C@H](C)CC[C@@H]1[C@@]24OO3` [Dihydroartemisinin, dihydroartemisinin], the “EC50 BVDV” value (BVDV-strain Pe515) was 0.05 µg/mL (≈ 0.176 µM), the “activity against BVDV” value (BVDV-strain Pe515) was “strong anti-viral activity” and the “MTC MDBK (minimal toxic concentration)” value (MDBK cells) was 0.4 µg/mL. For the same molecule, the “cell toxicity” value (MDBK cells) was “stayed low”.
